The values below come from US4002530A, “6-Aminopenicillanic acid derivative” (Recherche et Industrie Therapeutiques (R.I.T.), priority 1975, dated 1977).

In brackets after ≈: the same amount, converted by molar mass. Counter-ions that a name gives are not always drawn. Like-named read-outs stand apart in the source and are kept apart here.

One may read the ED50 as the dose that gives a 50% effect, or the effect in half of the subjects. Usually half-life stands for the time in which the quantity being followed falls by half. Lower therefore signals fast loss.

One series has as its system Shigella sonnei. Description: broth dilution test, minimum inhibitory concentration. It counts as cell-based. The note with it: about 20 hours at 35° C, tested as monoammonium salt. How it is done:
(§1) Antibiotic RIT D-2214 has been tested in form of the mono ammonium salt in position 3 of the penam nucleus and, for that reason, is herein below charcterized as this monoammonium salt.
(§2) The inhibitory levels were determined by the broth dilution test. A series of tubes containing varied concentrations of the monoammonium salt of antibiotic RIT D-2214 were inoculated with the test organism to determine the minimum concentration of the ammonium salt of antibiotic RIT D-2214 in mcg/ml. in the broth substrate which inhibited organism growth for a period of about twenty hours at 35° C.

Another series has as its system Staphylococcus aureus. Described as above. It counts as cell-based. The note with it: about 20 hours at 35° C, tested as monoammonium salt. How it is done: as §1, §2
Series [1] concerns Staphylococcus aureus Pen.resist. The series is described as above. It counts as cell-based. The note with it: penicillin resistant, about 20 hours at 35° C, tested as monoammonium salt.
Another series concerns Bacillus subtilis. The series is described as above. It counts as cell-based. Conditions: about 20 hours at 35° C, tested as monoammonium salt.
Another series has as its system Escherichia coli. Described as above. It counts as cell-based. The note with it: broth dilution, about 20 hours at 35° C, tested as monoammonium salt, read-out: Minimum Inhibitory concentration. On the technique in general: Dilution methods test growth across graded concentrations, often in twofold steps.
A further series concerns E. coli Pen. resistant. The description is as above. The note with it: Escherichia coli, penicillin resistant, about 20 hours at 35° C, tested as monoammonium salt. It counts as cell-based.
In another series the test system is Aerobacter aerogenes. The series is described as above. It counts as cell-based. Conditions: Klebsiella aerogenes; broth dilution, about 20 hours at 35° C; tested as monoammonium salt; read-out: Minimum Inhibitory concentration.
In a further series the test system is Klebsiella pneumoniae. Described as above. It counts as cell-based. Conditions: about 20 hours at 35° C, tested as monoammonium salt.
The test system of the next series is Salmonella paratyphi. The description is as above. Conditions: Salmonella enterica, 20 h, read-out: Minimum Inhibitory concentration. It counts as cell-based.
Another series concerns Proteus mirabilis. The series is described as above. The note with it: broth dilution, about 20 hours at 35° C, tested as monoammonium salt, read-out: Minimum Inhibitory concentration. It counts as cell-based.
In another series the test system is Proteus morganii. Described as above. The note with it: Morganella morganii, about 20 hours at 35° C, tested as monoammonium salt. It counts as cell-based.
The next series has as its system Pseudomonas aeruginosa. Described as above. It counts as cell-based. The note with it: about 20 hours at 35° C, tested as monoammonium salt.
For a further series, the system named is Corynebacterium xerosis. Described as above. It counts as cell-based. Conditions: about 20 hours at 35° C, tested as monoammonium salt.
Another series concerns Alcaligenes faecalis. The series is described as above. The note with it: about 20 hours at 35° C, tested as monoammonium salt. It counts as cell-based.
The test system of a further series is Salmonella meleagridis. Described as above. It counts as cell-based. The note with it: about 20 hours at 35° C, tested as monoammonium salt.
The test system of a further series is Salmonella typhi. The series is described as above. It counts as cell-based. Conditions: Salmonella enterica, 20 h, read-out: Minimum Inhibitory concentration.
The test system of another series is Salmonella typhimurium. The series is described as above. It counts as cell-based. The note with it: Salmonella enterica, about 20 hours at 35° C, tested as monoammonium salt.
The test system of a further series is Salmonella panama. The description is as above. It counts as cell-based. The note with it: Salmonella enterica, about 20 hours at 35° C, tested as monoammonium salt.
For a further series, the system named is Salmonella anatum. Described as above. It counts as cell-based. Conditions: Salmonella enterica, about 20 hours at 35° C, tested as monoammonium salt.
The subject of another series is Brucella abortus. Nature of the series: microbe, parasite or virus in culture. It counts as cell-based. The note with it: 20 h, read-out: Minimum Inhibitory concentration.
In series [2] the test system is Bordetella bronchiseptica. Nature of the series: broth dilution test, minimum inhibitory concentration. Conditions: about 20 hours at 35° C, tested as monoammonium salt. It counts as cell-based.
The next series concerns Escherichia coli 47. Description: mice protection test. It counts as in vivo. The note with it: Escherichia coli, 47, sc, 72 h; s.c., one hour after intravenous infection, observed 3 days; read-out: ED50 (total dose required to protect 50% of the infected mice). How it is done:
(§3) Comparative trials with ampicillin were performed in vivo according to the usual mice protection test procedure. The test compound was administered in graded dilutions to mice either subcutaneously (s.c.) in water or orally (or.) in combination with calcium carbonate one hour after intravenous infection with uniformly lethal doses of the test organism.

A further series concerns Escherichia coli 9. Nature of the series: mice protection test. It counts as in vivo. Conditions: Escherichia coli, 9, sc, 72 h; s.c., one hour after intravenous infection, observed 3 days; read-out: ED50 (total dose required to protect 50% of the infected mice). How it is done:
as §3

The subject of series [3] is Klebsiella pneumoniae SK&F 4200. Description: mice protection test. It counts as in vivo. Conditions: 72 h, one hour after intravenous infection, observed 3 days, read-out: ED50 (total dose required to protect 50% of the infected mice). Here is the method:
as §3

For another series, the system named is Proteus mirabilis 11. Nature of the series: mice protection test. Conditions: Proteus mirabilis, 11, sc, 72 h; s.c., one hour after intravenous infection, observed 3 days; read-out: ED50 (total dose required to protect 50% of the infected mice). It counts as in vivo. Here is the method: as §3
Series [4] relates to Salmonella brandebourg 22. Nature of the series: mice protection test. It counts as in vivo. The note with it: Salmonella, 22, sc, 72 h; s.c., one hour after intravenous infection, observed 3 days; read-out: ED50 (total dose required to protect 50% of the infected mice). Here is the method: as §3
Series [5] deals with Salmonella enteritidis 24. Nature of the series: mice protection test. It counts as in vivo. The note with it: Salmonella enterica, sc, 72 h, s.c., one hour after intravenous infection, observed 3 days, read-out: ED50 (total dose required to protect 50% of the infected mice). How it is done: as §3
Another series deals with Salmonella panama 20. Description: mice protection test. It counts as in vivo. The note with it: Salmonella enterica, 20, sc, 72 h; s.c., one hour after intravenous infection, observed 3 days; read-out: ED50 (total dose required to protect 50% of the infected mice). How it is done:
as §3

A further series concerns Shigella flexneri 25. Nature of the series: mice protection test. Conditions: Shigella flexneri, 25, sc, 72 h; s.c., one hour after intravenous infection, observed 3 days; read-out: ED50 (total dose required to protect 50% of the infected mice). It counts as in vivo. How it is done: as §3
Series [6] has as its system Staphylococcus aureus 663. Nature of the series: mice protection test. Conditions: Staphylococcus aureus, 663, sc, 72 h; s.c., one hour after intravenous infection, observed 3 days; read-out: ED50 (total dose required to protect 50% of the infected mice). It counts as in vivo. Here is the method:
as §3

For series [7], the system named is Vibrio parahaemoliticus 194. Nature of the series: mice protection test. It counts as in vivo. The note with it: Vibrio, 194, 72 h; oral with calcium carbonate, one hour after intravenous infection, observed 3 days; read-out: ED50 (total dose required to protect 50% of the infected mice). How it is done:
as §3

A short description of series [8]: in vivo. Conditions: mouse, sc, 20 mg/kg. On the set-up: species or system mice. The text has this: (§4) Plasma samples were adequately diluted with sterile water and assayed according to the usual agar diffusion method, using Bacillus subtilis ATCC 6633 as the test organism.
Series [9] can be described thus: in vivo. Also noted: species or system rats. Conditions: rat, sc, 20 mg/kg.
Source text: as §4

A short description of series [10]: in vivo. The note with it: dog, sc, 20 mg/kg. Also noted: species or system dogs.
Source text: as §4

The next series can be described thus: physchem. It counts as physicochemical. The note with it: reconstituted gastric juice, pH 1.3. The text has this: Antibiotic RIT D-2214 can be colorimetrically assayed by the classical hydroxylamine method of penicillin assay. […] Recoveries were estimated according to the hydroxylamine assay method.
Series [11] deals with Gram-positive and Gram-negative bacteria. Description: inhibitory activity against growth of bacteria. It counts as cell-based. Conditions: for inhibitory activity against the growth of bacteria: Gram-positive and Gram-negative bacteria; for antibacterial activity relative to another RIT 2214 form: compared with the RIT 2214 form named in the sentence. How it is done: as §1, §2

A further series relates to mice. Conditions: mouse, in vivo, iv, 500 mg/kg.
A further series can be described thus: solubility. It counts as physicochemical.

Consider `CC1(C)S[C@@H]2[C@H](NC(=O)CSC[C@H](N)C(=O)O)C(=O)N2[C@H]1C(=O)O` [RIT L-2214], for which the MIC in the series with Shigella sonnei is 80 µg/mL; in the series on Staphylococcus aureus, 1.25 µg/mL; in series [1], 80 µg/mL; with Bacillus subtilis, 0.31 µg/mL; in the series on Escherichia coli, 40 µg/mL; in the series with E. coli Pen. resistant, 80 µg/mL. Besides, the MIC in the series with Aerobacter aerogenes is 20 µg/mL; with Klebsiella pneumoniae it was 80 µg/mL; with Salmonella paratyphi it was 20 µg/mL (≈ 53 µM); in the series with Proteus mirabilis, 20 µg/mL; in the series on Proteus morganii it was 80 µg/mL; with Pseudomonas aeruginosa it was 80 µg/mL.

`CC1(C)S[C@@H]2[C@H](NC(=O)[C@H](N)c3ccccc3)C(=O)N2[C@H]1C(=O)O` [Ampicillin, ampicillin, reference compound]: the MIC in the series on Corynebacterium xerosis came to 0.1 µg/mL; in the series with Shigella sonnei it was 2.5 µg/mL; in series [1] it was 20 µg/mL; with Bacillus subtilis, 0.3 µg/mL; with E. coli Pen. resistant, 80 µg/mL; with Alcaligenes faecalis it was 1.6 µg/mL. The MIC in the series on Klebsiella pneumoniae was found to be 40 µg/mL; in the series on Salmonella meleagridis, 0.6 µg/mL; with Salmonella typhi, 0.6 µg/mL (≈ 1.72 µM); with Salmonella typhimurium it was 40 µg/mL; in the series on Salmonella panama it was 2.5 µg/mL; with Salmonella anatum, 0.6 µg/mL. Besides, the MIC in the series with Proteus morganii amounted to 20 µg/mL; with Brucella abortus it was 0.6 µg/mL (≈ 1.72 µM); in series [2] it was 0.6 µg/mL; in the series on Pseudomonas aeruginosa, 80 µg/mL. Also, the ED50 in the series with Escherichia coli 47 came to 23.6 mg/kg; with Escherichia coli 9, 11.5 mg/kg; in series [3] (oral with calcium carbonate) it was 50.4 mg/kg; in [3] (sc, s.c.), 36.7 mg/kg; in the series on Proteus mirabilis 11 it was 14.8 mg/kg; in series [4], 36.4 mg/kg. For the same compound, the ED50 in series [5] is 55.6 mg/kg; in the series with Salmonella panama 20 it was 22 mg/kg; in the series on Shigella flexneri 25, > 100 mg/kg; in series [6] it was < 11 mg/kg; in [7], 17.9 mg/kg. Further, the concentration at 5 min worked out at 6500 ng/mL in “in vivo [8]” and 7000 ng/mL in the series “in vivo [9]”. The concentration at 0.25 h was 9000 ng/mL in “in vivo [8]”, 13000 ng/mL in the series “in vivo [9]” and 13000 ng/mL in “in vivo [10]”. The concentration at 0.5 h in “in vivo [8]” came out at 3500 ng/mL; in the series “in vivo [10]” it was 18000 ng/mL. Moreover, the values for the concentration at 1 h in “in vivo [8]”, in the series “in vivo [9]” and in “in vivo [10]” were 1000 ng/mL, 5000 ng/mL and 18000 ng/mL, respectively. The concentration at 2 h is 2500 ng/mL in the series “in vivo [9]” and 9000 ng/mL in “in vivo [10]”. In “physchem”, this compound came in with a half-life of 6.5 h.

In the case of `CC1(C)S[C@@H]2[C@H](NC(=O)CSC[C@H](N)C(=O)O)C(=O)N2[C@H]1C(=O)O`, in series [11], the “inhibitory activity against the growth of bacteria” value was “active against Grampositive and negative bacteria”; the “antibacterial activity relative to another RIT 2214 form” value is given as “less than the monoammonium salt of RIT D-2214”.

Regarding `CC1(C)S[C@@H]2[C@H](NC(=O)CSC[C@@H](N)C(=O)O)C(=O)N2[C@H]1C(=O)O`, the detectable toxicity result in the series on mice was “does not show any detectable toxicity”. Moreover, in the series “solubility” (methanol), the solubility in methanol result is listed as “slightly soluble in methanol”. Further, the “solubility in other organic solvents” value in the series “solubility” (organic solvents other than methanol) is listed as “insoluble in other organic solvents”. The solubility in water entry in “solubility” (water) was “very soluble in water”.

For `CC1(C)S[C@@H]2[C@H](NC(=O)CSCC(N)C(=O)O)C(=O)N2[C@H]1C(=O)O` (mixture of isomers) [RIT DL-2214], the “antibacterial activity relative to another RIT 2214 form” value in [11] was “approximately half”.

For the compound `CC1(C)S[C@@H]2[C@H](NC(=O)CSC[C@@H](N)C(=O)O)C(=O)N2[C@H]1C(=O)O` [monoammonium salt of antibiotic RIT D-2214], the “inhibitory activity against the growth of bacteria” value in [11] is on record as “strong activity”.

On to `CC1(C)S[C@@H]2[C@H](NC(=O)Cc3ccccc3)C(=O)N2[C@H]1C(=O)O` [penicillin G, reference compound], for which the half-life in “physchem” is 0.117 h.
